Converted amounts (≈) assume the structure as drawn.
tested on: multidrug efflux transporter deficient TolC strain of Escherichia coli; test: not given; conditions: cited from earlier work

Row | Compound | antibacterial effect
1 | CC(C)=CCC/C(C)=C/CC/C(C)=C/Cc1c(C)[nH]c2ccccc2c1=O [AurD, Aurachin D] | moderate antibacterial effect

biological target: T1, cytochrome bo3 (Escherichia coli, UniProt P0ABI8); test: not given; conditions: values in brackets, determined spectrophotometrically; read-out: Ki^app bo3 (previous data) (converted); cited from earlier work
T1 construct: made in house; host or cells: E. coli strain GO195 with pIRHisA
T1 sequence (P0ABJ3 whole entry): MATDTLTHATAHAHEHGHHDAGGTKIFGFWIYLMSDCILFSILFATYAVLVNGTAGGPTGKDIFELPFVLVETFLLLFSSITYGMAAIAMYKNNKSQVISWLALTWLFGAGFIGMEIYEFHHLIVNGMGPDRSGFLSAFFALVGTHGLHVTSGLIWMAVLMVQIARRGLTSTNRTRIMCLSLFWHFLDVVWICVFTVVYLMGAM
T1 sequence (P0ABJ1 25-315, further chain): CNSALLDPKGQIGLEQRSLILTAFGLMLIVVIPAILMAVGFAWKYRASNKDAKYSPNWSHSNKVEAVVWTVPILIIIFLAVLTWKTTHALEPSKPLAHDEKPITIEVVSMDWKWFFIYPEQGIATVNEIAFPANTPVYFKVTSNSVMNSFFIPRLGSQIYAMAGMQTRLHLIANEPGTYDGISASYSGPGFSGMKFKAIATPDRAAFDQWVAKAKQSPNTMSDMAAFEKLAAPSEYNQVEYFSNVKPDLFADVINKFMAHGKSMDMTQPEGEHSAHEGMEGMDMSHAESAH
T1 sequence (P0ABJ6 whole entry, further chain): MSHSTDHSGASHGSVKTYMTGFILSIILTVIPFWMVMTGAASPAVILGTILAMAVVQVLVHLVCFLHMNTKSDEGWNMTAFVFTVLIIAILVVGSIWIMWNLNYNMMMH
T1 sequence (P0ABI8 whole entry): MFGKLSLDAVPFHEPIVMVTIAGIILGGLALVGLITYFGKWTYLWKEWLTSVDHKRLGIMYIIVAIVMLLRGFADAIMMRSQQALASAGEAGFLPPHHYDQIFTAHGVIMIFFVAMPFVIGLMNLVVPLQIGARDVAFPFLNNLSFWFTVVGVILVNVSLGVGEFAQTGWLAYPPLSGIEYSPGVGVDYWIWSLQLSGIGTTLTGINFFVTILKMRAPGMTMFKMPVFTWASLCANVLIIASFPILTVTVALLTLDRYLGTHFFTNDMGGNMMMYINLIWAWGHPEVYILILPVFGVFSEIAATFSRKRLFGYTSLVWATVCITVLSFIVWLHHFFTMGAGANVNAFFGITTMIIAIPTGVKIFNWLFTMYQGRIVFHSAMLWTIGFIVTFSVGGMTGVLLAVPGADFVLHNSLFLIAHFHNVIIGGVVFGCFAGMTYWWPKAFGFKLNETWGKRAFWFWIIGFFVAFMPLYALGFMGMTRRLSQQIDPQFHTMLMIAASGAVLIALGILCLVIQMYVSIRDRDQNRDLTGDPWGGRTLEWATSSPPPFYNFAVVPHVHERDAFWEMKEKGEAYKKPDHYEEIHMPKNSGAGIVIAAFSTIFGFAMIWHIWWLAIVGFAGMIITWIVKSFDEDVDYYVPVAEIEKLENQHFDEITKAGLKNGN

Row | Compound | Ki
2 | CCCCCCCCCCCc1c(CCCC)c(=O)c2ccccc2n1O [AC4-11] | 144 nM
3 | CCCCCCCCCCc1c(C)c(=O)c2ccccc2n1O [AC1-10] | 13 nM
4 | CCCCCCCCCCCc1c(CC)c(=O)c2ccccc2n1O [AC2-11] | 46 nM

biological target: cytochrome bd; test: not given; set-up: method as in PMID 9880809; conditions: values in brackets, determined spectrophotometrically; read-out: Ki^app bd-I (previous data) (converted); cited from earlier work

Row | Compound | Ki
5 | CCCCCCCCCCCc1c(CCCC)c(=O)c2ccccc2n1O [AC4-11] | 340 nM
6 | CCCCCCCCCCc1c(C)c(=O)c2ccccc2n1O [AC1-10] | 280 nM
7 | CCCCCCCCCCCc1c(CC)c(=O)c2ccccc2n1O [AC2-11] | 440 nM

biological target: T2, cytochrome bd-II (Escherichia coli, UniProt P26459); test: Oxygen reductase activity assay (Clark-type electrode) with purified cytochrome bd-II; type: biochemical, E. coli; conditions: compound 250 µM, 200 µM ubiquinone-1, 5 mM dithiothreitol, 120 nM enzyme, RT, 100% = DMSO; mean ± S.E.M. (n=3)
T2 construct: made in house; host or cells: E. coli C43 (DE3) Δ bo3 (CLY)
Description: (§1) To determine inhibition of our test set compounds and to assess the selectivity for bd-type oxidases we tested the inhibitory effect via […] determination of oxygen reduction using purified protein samples and ubiquinol-1 as electron donor. In this set-up, we kept the compound at a high molar excess compared to the protein. Figures 3 and 4 illustrate the screening results for cytochromes bd-I, bd-II and bo3, respectively. A comparative overview of all compounds is given in SI Table S1. […]. […] Among these compounds, AC2-11 has the strongest inhibitory effect on all three oxidases. […]. For AurC and its analogues it was reported that replacement of N–OH with an N–H group decreases the inhibitory potential only for cytochrome bo3, keeping a strong inhibitory effect on cytochrome bd[17]. Correspondingly, we observed a clear inhibition of cytochromes bd-I and bd-II with all AurD-type compounds. Regarding the long-chain derivatives AC4-11, AC2-11 and AD3-11, inhibition of cytochromes bd-I and bd-II and bo3 highlight the importance of the residue at the nitrogen group at position 1 for enzyme selectivity. […]. […] Regarding the cyclic derivatives, 7-MTHA causes only a minor inhibition of cytochrome bd-I. This effect could be due to the methoxy group in position 7 that introduces an additional polarity to the molecule. Steric hindrance as a consequence of the third ring structure is less likely, because AD5-cyclo is bulkier and reduces activity < 10% of cytochromes bd-I and bd-II.
(§2) Oxygen reductase activity was measured as oxygen consumption rate of purified protein by OX-MR Clark-type oxygen electrode linked to a PA 2000 picoammeter and to the ADC-216 AD-converter. Data recording with SensorTrace Basic 2.1 software (all Unisense, Denmark). Measurements were performed at RT in stirred 2 ml—glass vials with a total reaction volume of 600 µl. Oxygen consumption was initiated by adding 30 nM (bd-I, bo3) or 120 nM (bd-II) of the respective enzyme to the equilibrated mixture containing 20 mM NaPi (pH 8.0), 50 mM NaCl, 0.02% DDM, 5 mM Dithiothreitol (DTT) and 200 µM Ubiquinone-1 (2,3-Dimethoxy-5-methyl-6-(3-methyl-2-buten-1-yl)-1,4-benzoquinone). A 10 min equilibration period was implemented prior to enzyme addition. Inhibition experiments were performed with 250 µM of the respective compound from 20 mM stock solution in DMSO before equilibration. Data analysis and visualization via Origin Lab Pro 9.5 (Additive GmbH, Germany) Data analysis included an unpaired, two-sided t-test of two samples to check that given residual activities were sufficiently different between proteins (at significance levels p < 0.05, 0.01 or 0.001). HQNO (2-heptyl-4-quinolinol 1-oxide) was purchased from biomol GmbH, Hamburg. […]. The Ki^app value was adopted as the EC50 from the sigmoidal DoseRespFit. Further information can be found in Supporting Information Figures S2 to S5.

T2 sequence (P26459 whole entry): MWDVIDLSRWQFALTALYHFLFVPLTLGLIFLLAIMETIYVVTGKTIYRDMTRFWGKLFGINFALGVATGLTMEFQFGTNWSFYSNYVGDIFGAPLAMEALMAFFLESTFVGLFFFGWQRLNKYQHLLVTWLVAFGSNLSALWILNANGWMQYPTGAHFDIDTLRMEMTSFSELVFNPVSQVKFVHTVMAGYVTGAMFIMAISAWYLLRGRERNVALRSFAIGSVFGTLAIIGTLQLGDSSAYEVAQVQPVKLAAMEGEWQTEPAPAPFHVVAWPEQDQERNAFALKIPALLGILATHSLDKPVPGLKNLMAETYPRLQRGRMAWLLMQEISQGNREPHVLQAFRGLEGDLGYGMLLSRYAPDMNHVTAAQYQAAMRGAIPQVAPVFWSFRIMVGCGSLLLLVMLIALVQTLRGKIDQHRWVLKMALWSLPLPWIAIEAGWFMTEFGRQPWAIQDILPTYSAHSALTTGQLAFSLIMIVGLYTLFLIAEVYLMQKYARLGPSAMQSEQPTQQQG
T2 sequence (P24244 whole entry, further chain): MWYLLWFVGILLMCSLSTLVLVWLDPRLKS
T2 sequence (P26458 whole entry, further chain): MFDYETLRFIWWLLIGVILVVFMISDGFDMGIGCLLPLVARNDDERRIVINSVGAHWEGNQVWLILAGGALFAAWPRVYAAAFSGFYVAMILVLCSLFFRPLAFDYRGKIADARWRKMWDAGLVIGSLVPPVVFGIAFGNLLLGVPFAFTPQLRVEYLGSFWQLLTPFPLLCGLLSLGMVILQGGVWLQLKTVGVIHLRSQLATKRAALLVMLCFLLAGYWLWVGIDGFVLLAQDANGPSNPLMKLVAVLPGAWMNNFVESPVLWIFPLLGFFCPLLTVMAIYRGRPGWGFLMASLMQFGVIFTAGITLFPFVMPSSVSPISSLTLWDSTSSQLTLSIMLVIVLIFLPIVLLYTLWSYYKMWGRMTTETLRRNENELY

Row | Compound | Rest activity in % of control activity bd-II
8 | 2-(2-Heptyl)-3-methyl-4(1H)-quinolone [AD7-1] | 1.18 ± 0.12%
9 | O=c1c2c([nH]c3ccccc13)CCCCC2 [AD5-cyclo] | 1.51 ± 0.15%

same assay, conditions: compound 250 µM, 200 µM ubiquinone-1, 5 mM dithiothreitol, 120 nM enzyme, RT, 100% = DMSO; mean ± S.E.M. (n=3); listed as AD7-1*

Row | Compound | Rest activity in % of control activity bd-II
10 | 2-(2-Heptyl)-3-methyl-4(1H)-quinolone [AD7-1] | 1.71 ± 0.48%

same assay, conditions: compound 250 µM, 200 µM ubiquinone-1, 5 mM dithiothreitol, 120 nM enzyme, RT, 100% = DMSO; mean ± S.E.M. (n=3); read-out: Rest activity in % of control activity bd-II

Row | Compound | remaining activity at 250 µM
11 | COc1ccc2[nH]c3c(c(=O)c2c1)CCCC3 [Compound 7-MTHA, 7-methoxy-1,3,4,10-tetrahydro-9(2H)-acridinone, reference compound] | 9.6 ± 0.16%
12 | CCCCCCCCCCCc1c(CCCC)c(=O)c2ccccc2n1O [AC4-11] | 2.14 ± 0.35%
13 | CCCCCCCc1cc(O)c2ccccc2[n+]1[O-] [HQNO, 2-heptyl-4-quinolinol 1-oxide, reference compound] | 6.44 ± 1.3%
14 | CCCCCCCCCCCc1cc(=O)c2ccccc2[nH]1 [AD0-11] | 8.4 ± 0.36%
15 | CC(C)=CCC/C(C)=C/CC/C(C)=C/Cc1c(C)[nH]c2ccccc2c1=O [AurD, Aurachin D] | 1.62 ± 0.19%
16 | CCCCCCCCCCCc1c(CC)c(=O)c2ccccc2n1O [AC2-11] | 0.73 ± 0.21%

tested on: human U-2 OS osteosarcoma cells; test: not given; set-up: method as in PMID 23946854; conditions: upon treatment; cited from earlier work

Row | Compound | mitochondrial membrane potential reduced to
17 | CC(C)=CCC/C(C)=C/CC/C(C)=C/Cc1c(C)[nH]c2ccccc2c1=O [AurD, Aurachin D] | 50–80%

tested on: B. subtilis; test: not given; set-up: method as in PMID 3106289; conditions: cited from earlier work

Row | Compound | minimum inhibitory concentration
18 | CC(C)=CCC/C(C)=C/CC/C(C)=C/Cc1c(C)[nH]c2ccccc2c1=O [AurD, Aurachin D] | 0.15 µg/mL (≈ 0.413 µM)

biological target: T1, cytochrome bo3; test: Oxygen reductase activity assay (Clark-type electrode) with purified cytochrome bo3; type: biochemical, E. coli; conditions: compound 250 µM, 200 µM ubiquinone-1, 5 mM dithiothreitol, 30 nM enzyme, RT, 100% = DMSO; mean ± S.E.M. (n=3)
Description: as §1, §2

Row | Compound | Rest activity in % of control activity bo3
19 | CCCCCCCCCCCc1cc(=O)c2ccccc2[nH]1 [AD0-11] | 23.3 ± 2.3%
20 | 2-(2-Heptyl)-3-methyl-4(1H)-quinolone [AD7-1] | 63.6 ± 1.3%
21 | CC(C)=CCC/C(C)=C/CC/C(C)=C/Cc1c(C)[nH]c2ccccc2c1=O [AurD, Aurachin D] | 29.9 ± 2.4%

same assay, conditions: compound 250 µM, 200 µM ubiquinone-1, 5 mM dithiothreitol, 30 nM enzyme, RT, 100% = DMSO; mean ± S.E.M. (n=3); listed as AD7-1*

Row | Compound | Rest activity in % of control activity bo3
22 | 2-(2-Heptyl)-3-methyl-4(1H)-quinolone [AD7-1] | 47.0 ± 1.9%

same assay, conditions: compound 250 µM, 200 µM ubiquinone-1, 5 mM dithiothreitol, 30 nM enzyme, RT, 100% = DMSO; mean ± S.E.M. (n=3); read-out: Rest activity in % of control activity bo3

Row | Compound | remaining activity at 250 µM
23 | COc1ccc2[nH]c3c(c(=O)c2c1)CCCC3 [Compound 7-MTHA, 7-methoxy-1,3,4,10-tetrahydro-9(2H)-acridinone, reference compound] | 69.3 ± 1.7%
24 | CCCCCCCCCCCc1c(CCCC)c(=O)c2ccccc2n1O [AC4-11] | 0.863 ± 0.29%
25 | CCCCCCCc1cc(O)c2ccccc2[n+]1[O-] [HQNO, 2-heptyl-4-quinolinol 1-oxide, reference compound] | 4.53 ± 0.58%
26 | CCCCCCCCCCc1c(C)c(=O)c2ccccc2n1O [AC1-10] | 0.626 ± 0.08%
27 | CCCCCCCCCCCc1cc(=O)c2ccccc2[nH]1 [AD0-11] | 23%
28 | CC(C)=CCC/C(C)=C/CC/C(C)=C/Cc1c(C)[nH]c2ccccc2c1=O [AurD, Aurachin D] | 30%
29 | O=c1c2c([nH]c3ccccc13)CCCCC2 [AD5-cyclo] | 70.5 ± 2.6%
30 | CCCCCCCCCCCc1c(CC)c(=O)c2ccccc2n1O [AC2-11] | 0.445 ± 0.08%

same assay, conditions: final enzyme concentration 30 nM; EC50 of DoseResp fit; read-out: Ki^app bo3

Row | Compound | Ki
31 | CCCCCCCc1cc(O)c2ccccc2[n+]1[O-] [HQNO, 2-heptyl-4-quinolinol 1-oxide, reference compound] | 2600 ± 400 nM
32 | CC(C)=CCC/C(C)=C/CC/C(C)=C/Cc1c(C)[nH]c2ccccc2c1=O [AurD, Aurachin D] | > 10000 nM
33 | CCCCCCCCCCCc1c(CC)c(=O)c2ccccc2n1O [AC2-11] | 31 ± 6 nM

biological target: T3, cytochrome bd-I (Escherichia coli, UniProt P0ABJ9); test: Oxygen reductase activity assay (Clark-type electrode) with purified cytochrome bd-I; type: biochemical, E. coli; conditions: compound 250 µM, 200 µM ubiquinone-1, 5 mM dithiothreitol, 30 nM enzyme, RT, 100% = DMSO; mean ± S.E.M. (n=3)
T3 construct: made in house; host or cells: E. coli C43 (DE3) Δ bo3 (CLY)
Description: as §1, §2
Dose response curves were created to rank the compounds due to their inhibition potency. Inhibitors were titrated in presence of 30nM bd-I. From Clark-type electrode monitored oxygen consumption, resulting oxygen reduction activity with 200µM Q1, reduced with 2mM DTT, was calculated as turnover in e^-/s. Turnover values were normalized, followed by a curve fitting with DoseResp Fit (1) in Origin LabPro9.5 (Additive GmbH, Germany). Data points are mean of minimum three independent measurements ± S.E.M.

T3 sequence (P0ABJ9 whole entry): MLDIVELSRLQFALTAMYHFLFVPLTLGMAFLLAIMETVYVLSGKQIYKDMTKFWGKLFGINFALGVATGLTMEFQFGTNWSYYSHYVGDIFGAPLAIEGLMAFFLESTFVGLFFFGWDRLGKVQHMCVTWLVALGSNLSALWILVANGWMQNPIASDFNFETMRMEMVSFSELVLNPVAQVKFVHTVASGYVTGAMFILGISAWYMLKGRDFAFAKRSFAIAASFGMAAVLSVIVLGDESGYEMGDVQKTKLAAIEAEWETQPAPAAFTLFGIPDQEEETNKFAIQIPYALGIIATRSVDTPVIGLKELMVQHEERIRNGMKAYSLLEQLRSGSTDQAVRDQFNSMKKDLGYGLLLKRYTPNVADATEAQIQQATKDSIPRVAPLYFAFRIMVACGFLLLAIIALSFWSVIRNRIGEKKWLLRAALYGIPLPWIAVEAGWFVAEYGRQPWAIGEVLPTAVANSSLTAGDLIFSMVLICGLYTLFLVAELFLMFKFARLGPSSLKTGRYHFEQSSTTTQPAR
T3 sequence (P0ABK2 whole entry, further chain): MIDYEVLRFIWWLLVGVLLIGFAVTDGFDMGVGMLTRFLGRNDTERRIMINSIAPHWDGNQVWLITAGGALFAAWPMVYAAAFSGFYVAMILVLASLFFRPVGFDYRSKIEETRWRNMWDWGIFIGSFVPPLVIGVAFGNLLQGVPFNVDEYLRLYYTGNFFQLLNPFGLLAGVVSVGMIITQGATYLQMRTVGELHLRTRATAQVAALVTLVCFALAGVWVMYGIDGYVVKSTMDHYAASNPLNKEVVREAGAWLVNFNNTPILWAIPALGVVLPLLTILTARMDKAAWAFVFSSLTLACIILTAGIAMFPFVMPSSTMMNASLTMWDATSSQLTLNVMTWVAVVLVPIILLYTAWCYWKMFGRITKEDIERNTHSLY
T3 sequence (P56100 whole entry, further chain): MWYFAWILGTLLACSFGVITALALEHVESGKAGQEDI

Row | Compound | Rest activity in % of control activity bd-I
34 | 2-(2-Heptyl)-3-methyl-4(1H)-quinolone [AD7-1] | 4.90 ± 1.5%
35 | O=c1c2c([nH]c3ccccc13)CCCCC2 [AD5-cyclo] | 5.67 ± 1.14%

same assay, conditions: compound 250 µM, 200 µM ubiquinone-1, 5 mM dithiothreitol, 30 nM enzyme, RT, 100% = DMSO; mean ± S.E.M. (n=3); listed as AD7-1*

Row | Compound | Rest activity in % of control activity bd-I
36 | 2-(2-Heptyl)-3-methyl-4(1H)-quinolone [AD7-1] | 3.46 ± 0.17%

same assay, conditions: compound 250 µM, 200 µM ubiquinone-1, 5 mM dithiothreitol, 30 nM enzyme, RT, 100% = DMSO; mean ± S.E.M. (n=3); read-out: Rest activity in % of control activity bd-I

Row | Compound | remaining activity at 250 µM
37 | COc1ccc2[nH]c3c(c(=O)c2c1)CCCC3 [Compound 7-MTHA, 7-methoxy-1,3,4,10-tetrahydro-9(2H)-acridinone, reference compound] | 35.7 ± 5.7%
38 | CCCCCCCCCCCc1c(CCCC)c(=O)c2ccccc2n1O [AC4-11] | 1.19 ± 0.42%
39 | CCCCCCCc1cc(O)c2ccccc2[n+]1[O-] [HQNO, 2-heptyl-4-quinolinol 1-oxide, reference compound] | 7.29 ± 0.45%
40 | CCCCCCCCCCc1c(C)c(=O)c2ccccc2n1O [AC1-10] | 1.39 ± 0.19%
41 | CCCCCCCCCCCc1cc(=O)c2ccccc2[nH]1 [AD0-11] | > 30%
42 | CC(C)=CCC/C(C)=C/CC/C(C)=C/Cc1c(C)[nH]c2ccccc2c1=O [AurD, Aurachin D] | 3.93 ± 0.64%
43 | O=c1c2c([nH]c3ccccc13)CCCCC2 [AD5-cyclo] | < 10%
44 | CCCCCCCCCCCc1c(CC)c(=O)c2ccccc2n1O [AC2-11] | 1.09 ± 0.09%

same assay, conditions: final enzyme concentration 30 nM; inhibitor concentration at 50% residual oxygen reductase activity (EC50 of DoseResp fit); read-out: Ki^app bd-I

Row | Compound | Ki
45 | CCCCCCCCCCCc1c(CCCC)c(=O)c2ccccc2n1O [AC4-11] | 106 ± 13 nM
46 | CCCCCCCc1cc(O)c2ccccc2[n+]1[O-] [HQNO, 2-heptyl-4-quinolinol 1-oxide, reference compound] | 3600 ± 500 nM
47 | CCCCCCCCCCc1c(C)c(=O)c2ccccc2n1O [AC1-10] | 82 ± 11 nM
48 | CCCCCCCCCCCc1c(CC)c(=O)c2ccccc2n1O [AC2-11] | 34 ± 6 nM

From publication PMC8668966, “Short-chain aurachin D derivatives are selective inhibitors of E. coli cytochrome bd-I and bd-II oxidases” (Scientific Reports, 2021)
